Reference: US10039713B1, “Drug-loaded ganglioside micelle and the preparation method and use thereof” (Chongqing University, priority 2017, dated 2018)

Test system: blood brain barrier
Experiment: Evaluation on intracranial blood brain barrier penetrating effect of a GM1 micelle (animal living body fluorescence imaging)
Assay type: in vivo
Conditions: healthy mice, intravenous injection of tails, FIG. 2
Protocol: According to the preparation method of DOX-GM1 in the example 1, a fluorescent dye DiR-GM1 mixed micelle was prepared according to the same method. DiR-GM1 micelle and free-DiR were intravenous injected of tails of the healthy mice. The distribution and strength of the DiR fluorescence in tissues are observed and recorded by the animal living body imagery at different time points.

SMILES: CCCCCCCCCCCCCCCCCCN1/C(=C/C=C/C=C/C=C/C2=[N+](CCCCCCCCCCCCCCCCCC)c3ccccc3C2(C)C)C(C)(C)c2ccccc21.[I-] [DiR solution]
- entry into the brain / blood-brain barrier penetration: cannot enter the brain
- fluorescence distribution (DiR) in tissues (in-vivo imaging at different time points): concentrated in the liver
